According to patent publication US5200415A, “Pyrazolo[1,5-a]pyridine-3-carboxylic acid derivatives and their pharmaceutical use” (Asahi Kasei Kogyo Kabushiki Kaisha, priority 1990, dated 1993):
pIC50: −log10 of the molar value. Like-named read-outs stand apart in the source and are kept apart here.

What was measured:
5-HT3 receptor = molecular target: T1, 5-HT3 receptor (Rattus norvegicus, UniProt P35563); assay: 5-HT3 receptor binding experiment (3H-quipazine binding assay, rat cerebral cortical membrane fraction); conditions: for inhibition at 0.01 µM / inhibition at 0.001 µM: read-out: Binding inhibitory rate
T1 sequence (P35563 24-483): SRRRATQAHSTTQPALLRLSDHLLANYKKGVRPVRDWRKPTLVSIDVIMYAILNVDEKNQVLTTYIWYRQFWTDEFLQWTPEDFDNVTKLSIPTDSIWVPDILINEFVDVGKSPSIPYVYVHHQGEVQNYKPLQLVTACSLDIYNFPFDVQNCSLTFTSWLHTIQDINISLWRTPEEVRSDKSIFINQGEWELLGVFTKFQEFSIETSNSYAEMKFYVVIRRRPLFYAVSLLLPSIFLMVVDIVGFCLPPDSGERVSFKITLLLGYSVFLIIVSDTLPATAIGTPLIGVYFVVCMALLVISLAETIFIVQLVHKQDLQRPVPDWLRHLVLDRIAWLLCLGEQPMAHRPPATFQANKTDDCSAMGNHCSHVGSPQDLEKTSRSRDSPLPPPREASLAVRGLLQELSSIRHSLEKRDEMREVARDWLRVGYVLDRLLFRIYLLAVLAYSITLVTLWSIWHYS

female beagles = assay: Antiemetic effects against cisplatin-induced vomiting; type: in vivo, female beagles (dog); conditions: for Number of vomits / Latency of the first vomit: test compound 0.1 mg/kg i.v. 75 minutes after cisplatin 3 mg/kg i.v.; for Number of vomits: 4 hours observation; for Vomiting after cisplatin (result in words): two beagles, test compound 0.1 mg/kg i.v., cisplatin 3 mg/kg i.v.
Excerpt: Using four 9-13 month-old female beagles having a body weight of 7.5-9.6 Kg (furnished by Toyo Research Animal Inc.), the antiemetic effects of certain compounds of the present invention were investigated.
As test compounds, the compounds obtained in Examples 8 and 9, respectively, were individually weighed and dissolved in 0.01N hydrochloric acid. The resultant solutions were neutralized to about pH 7 with 0.01N NaOH to provide aqueous solutions for administration. Cisplatin ("Briplatin Injection", product of Bristol-Myers Co.) was used as an emetic.
To see the emetic effects of cisplatin to each animal, vomiting after the administration of cisplatin was first observed (control group). Next, seven weeks later, each group consisting of two beagles was intravenously administered with 0.1 mg/kg (0.2 ml/kg) of the compound of Example 8 or 9 upon an elapsed time of 75 minutes after the administration of cisplatin, and the group administered with the compound of Example 8 and the group administered with the compound of Example 9 were both observed for vomit. Cisplatin was intravenously administered at the dosage of 3 mg/kg (in the volume of 6 ml/kg) and the administration rate of 10 ml/min.
The laboratory animals were fasted for about 24 hours prior to administration of cisplatin and, one hour after the administration of cisplatin, were fed. Vomit was determined depending on whether vomitus was discharged out of the mouth. With respect to the number of vomits and their latency, observation was continued for 4 hours after the administration of cisplatin.
Based on the observation, the latency of the first vomit of and the number of vomits of each laboratory animal after the administration of cisplatin are shown in Table 3-A and Table 3-B.

SMILES | pIC50 (5-HT3 receptor) | further results
O=C(O)c1cnn2ccccc12 [Control* 1, Pyrazolo[1,5a]pyridine3-carboxylic acid, reference compound] | < 5.00 | 
Cc1nn2ccccc2c1C(=O)O [Control* 2, 2Methylpyrazolo[1,5a]pyridine3-carboxylic acid, reference compound] | < 5.00 | 
Cc1cccn2ncc(C(=O)O)c12 [Control* 3, 4Methylpyrazolo[1,5a]pyridine3-carboxylic acid, reference compound] | < 5.00 | 
Cc1ccn2ncc(C(=O)O)c2c1 [Control* 4, 5Methylpyrazolo[1,5a]pyridine3-carboxylic acid, reference compound] | < 5.00 | 
Cc1ccc2c(C(=O)O)cnn2c1 [Control* 5, 6Methylpyrazolo[1,5a]pyridine3-carboxylic acid, reference compound] | < 5.00 | 
Cc1cccc2c(C(=O)O)cnn12 [Control* 6, 7Methylpyrazolo[1,5a]pyridine3-carboxylic acid, reference compound] | < 5.00 | 
Cc1nn2c(C)cccc2c1C(=O)O [Control* 7, 2,7Dimethylpyrazolo[1,5a]pyridine3-carboxylic acid, reference compound] | < 5.00 | 
O=C(NC1CN2CCC1CC2)c1cnn2ccccc12 (stereo not drawn) [Example 1, N-(1-azabicyclo[2.2.2]oct-3-yl)-3-pyrazolo[1,5-a]pyridinecarboxamide] | 7.39 | inhibition at 0.01 µM (5-HT3 receptor): 50%
Cc1ccn2ncc(C(=O)NC3CN4CCC3CC4)c2c1 (stereo not drawn) [Example 2, 5-methyl-N-(1-azabicyclo[2.2.2]oct-3-yl)-3-pyrazolo[1,5-a]pyridinecarboxamide] | 7.36 | inhibition at 0.01 µM (5-HT3 receptor): 31%
Cc1cccc2c(C(=O)NC3CN4CCC3CC4)cnn12 (stereo not drawn) [Example 4, 7-methyl-N-(1-azabicyclo[2.2.2]oct-3-yl)-3-pyrazolo[1,5-a]pyridinecarboxamide] | 8.14 | inhibition at 0.01 µM (5-HT3 receptor): 82%
Cc1nn2ccccc2c1C(=O)NC1CN2CCC1CC2 (stereo not drawn) [Example 5, 2-methyl-N-(1-azabicyclo[2.2.2]oct-3-yl)-3-pyrazolo[1,5-a]pyridinecarboxamide] | 7.72 | inhibition at 0.01 µM (5-HT3 receptor): 50%
CN1[C@@H]2CC[C@H]1C[C@@H](OC(=O)c1cnn3ccccc13)C2 [Example 6, endo-8-methyl-8-azabicyclo[3.2.1]-oct-3-yl pyrazolo[1,5-a]pyridine-3-carboxylate] | 7.78 | inhibition at 0.001 µM (5-HT3 receptor): 9%; inhibition at 0.01 µM (5-HT3 receptor): 37%
Cc1cccc2c(C(=O)O[C@H]3C[C@H]4CC[C@@H](C3)N4C)cnn12 [Example 7, endo-8-methyl-8-azabicyclo[3.2.1]-oct-3-yl 7-methylpyrazolo[1,5-a]pyridine-3-carboxylate] | 9.00 | inhibition at 0.001 µM (5-HT3 receptor): 43%; inhibition at 0.01 µM (5-HT3 receptor): 77%
Cc1cccc2c(C(=O)N[C@H]3C[C@H]4CC[C@@H](C3)N4C)cnn12 [Example 8, endo-8-methyl-8-azabicyclo[3.2.1]-oct-3-yl 7-methyl-pyrazolo[1,5-a]pyridine-3-carboxamide] | 7.72 | Number of vomits (female beagles; Dog No. 1): 0 times; Number of vomits (female beagles; Dog No. 2): 0 times; Vomiting after cisplatin (result in words) (female beagles): No vomit
Cc1cccc2c(C(=O)N[C@H]3C[C@H]4CCC[C@@H](C3)N4C)cnn12 [Example 9, endo-9-methyl-9-azabicyclo[3.3.1]-non-3-yl 7-methyl-pyrazolo[1,5-a]pyridine-3-carboxamide] |  | Latency of the first vomit (female beagles; Dog No. 3): 132 min; Number of vomits (female beagles; Dog No. 3): 12 times; Latency of the first vomit (female beagles; Dog No. 4): 173 min; Vomiting after cisplatin (result in words) (female beagles): number of vomits therefore decreased in one case; pIC50 (5-HT3 receptor; read-out: IC50 value): 7.27
Cc1cccc2c(C(=O)N[C@@H]3CN4CCC3CC4)cnn12 [Example 10, (S)-(-)-N-(1-azabicyclo[2.2.2]oct-3-yl)-7-methylpyrazolo[1,5-a]pyridine-3-carboxamide] | 9.55 | 
Cc1cccc2c(C(=O)N[C@H]3CN4CCC3CC4)cnn12 [Example 11, (R)-(+)-N-(1-azabicyclo[2.2.2]oct-3-yl)-7-methylpyrazolo[1,5-a]pyridine-3-carboxamide] | 7.35 | 
Cc1nn2ccccc2c1C(=O)O[C@H]1C[C@H]2CC[C@@H](C1)N2C [Example 15, endo-8-methyl-8-azabicyclo[3.2.1]-oct-3-yl 2-methyl-pyrazolo[1,5-a]pyridine-3-carboxylate] | 8.57 | 
Cc1cccn2ncc(C(=O)O[C@H]3C[C@H]4CC[C@@H](C3)N4C)c12 [Example 16, endo-8-methyl-8-azabicyclo[3.2.1]-oct-3-yl 4-methyl-pyrazolo[1,5-a]pyridine-3-carboxylate] | 8.46 | 
Cc1ccn2ncc(C(=O)O[C@H]3C[C@H]4CC[C@@H](C3)N4C)c2c1 [Example 17, endo-8-methyl-8-azabicyclo[3.2.1]-oct-3-yl 5-methylpyrazolo[1,5-a]pyridine-3-carboxylate] | 7.59 | 
Cc1nn2c(C)cccc2c1C(=O)NC1CN2CCC1CC2 (stereo not drawn) [Example 19] | 8.28 | 
